Values of other authors, collected in article PMC8435724, “A Single L/D-Substitution at Q4 of the mInsA2-10 Epitope Prevents Type 1 Diabetes in Humanized NOD Mice” (Frontiers in Immunology, 2021).

How the values were obtained:
[1] = system: insulin B15-23-reactive CD8^+ T cell clone G9C8; conditions: cytotoxicity and IFN-γ production assays
T cells of T1D patients = system: T cells of T1D patients
Source text: Thus, human InsA2-10 is likely to be an immunogenic target for diabetic patients.

Substance | antagonist activity on clone G9C8 (in words) [1] | presence of specific T cell responses (in words) (T cells of T1D patients)
G6H: APL of insulin B15-23 (LYLVCGERG) substituted at position 6 (LYLVCHERG) | antagonist activity | –
GIVEQCCTSI [InsA1-10, human proinsulin (PPI) 90-99 or InsA1-10 (…)] | – | presence of specific T cell responses
R8L: APL of insulin B15-23 (LYLVCGERG) substituted at position 8 (LYLVCGELG) | antagonist activity | –
